Values quoted from earlier work, collected in patent US20060148728A1 (priority 2000, published 2006).

Conditions: in vivo; cited from earlier work

For `COc1cc([C@@H]2c3cc4c(cc3[C@@H](O[C@@H]3O[C@@H]5CO[C@@H](C)O[C@H]5[C@H](O)[C@H]3O)[C@H]3COC(=O)[C@H]23)OCO4)cc(OC)c1O` [Etoposide], the “Bioavailability of oral etoposide” value is given as 40-75%.
